# Laboratory results from patent US7541463B2, “Sulfur-containing naphthalimide derivatives” (East China University of Science and Technology, priority 2003, dated 2009).
# How the values were obtained:
# tumor cell cycle = test: Tumor cell cycle arrest (further studies); assay type: cell-based; conditions: significantly dose-dependent
# [1] = Body weight and deaths of S-180 bearing mice; assay type: in vivo
# S-180 sarcoma [2] = test: In vivo tumor growth inhibition, S-180 sarcoma in mice
# Method: S-180 sarcoma developed for 7-11 days and in good growth trend was homogenated into cell suspension. The cell suspension was inoculated subcutaneously into right armpit of female KM mice (18˜22 g) (about 1.0−2.5×10^6 cells/mouse). After 24 h, the mice were grouped in random with compounds administrated by i.p. injection. From the next day on, the mice were given serial dosages. After treatment, animals were killed, and solid tumors were removed and weighed after the body weight were weighed. The inhibition rate was calculated as follows, and T-test was carried out: [(Average tumor weight of NS group−Average tumor weight of test group)/Average tumor weight of NS group]×100%.
# H22 hepatoma = test: In vivo tumor inhibition, H22 hepatoma; conditions: compared with C16
# tumor cell = test: Tumor cell apoptosis (further studies); assay type: cell-based
# DNA = DNA double strand break (further studies)
# S-180 sarcoma [3] = test: In vivo tumor growth inhibition, S-180 sarcoma in mice; remark: listed apart in the source
compound,measurement,setting,value
"CN(C)CCN1C(=O)c2cccc3cc(N)cc(c23)C1=O [Amonafide, N-(β-dimethylaminoethyl)-3-amino-1,8-naphthalimide, reference compound]",tumor cell cycle arrest,tumor cell cycle,arrest tumor cell cycle in G2/M phase
same,Weight of mice (g) Day 7,[1]; 5 mg/kg i.p,32.0 g
same,Weight of mice (g) Day 7,[1]; 10 mg/kg i.p,31.3 g
same,Weight of tumor (g) mean ± SD,"S-180 sarcoma [2]; S-180 sarcoma, 5 mg/kg i.p",1.12 ± 0.35 g
same,activity against mice S180 sarcoma (in words),S-180 sarcoma [2]; i.p. injection,not potent
same,activity in parallel experiments (in words),H22 hepatoma,not as active
same,tumor cell apoptosis,tumor cell,trigger tumor cell apoptosis
same,DNA double strand break,DNA,induce the broken of DNA double strand
same,Tumor growth inhibition %,S-180 sarcoma [3]; 5 mg/kg i.p,30.9%
same,Tumor growth inhibition %,S-180 sarcoma [3]; 10 mg/kg i.p,15.4%
same,Weight of tumor (g) mean ± SD,S-180 sarcoma [3]; 10 mg/kg i.p,1.37 ± 0.26 g
